Measurements reported in patent publication US20080146630A1, “CRYSTAL FORM OF 2-(3-FLUORO-4-HYDROXYPHENYL)-7-VINYL-1,3-BENZOXAZOL-5-OL” (WYETH, priority 2006, published 2008).

Experiment: Conversion of Form E on suspending and stirring in solvent (slurry)
Type: physicochemical
Source text: The anhydrate crystal form (Form E) can be converted to other crystal forms under suitable conditions.

C=Cc1cc(O)cc2nc(-c3ccc(O)c(F)c3)oc12 [Form E, 2-(3-fluoro-4-hydroxyphenyl)-7-vinyl-1,3-benzoxazol-5-ol]
crystal form conversion after suspension and stirring (suspended and stirred in acetone at room temperature for seven days): another anhydrate crystal form is obtained
crystal form conversion after suspension and stirring (suspended and stirred in ethanol at room temperature for seven days): another anhydrate crystal form is obtained
crystal form conversion after suspension and stirring (suspended and stirred in water at room temperature for seven days): converted to a hydrate crystal form
